{"source": "BindingDB's records for doi:10.1016/s0960-894x(01)00397-3", "about": "(Glaxosmithkline, 2001)", "target": "C-C chemokine receptor type 2 (Homo sapiens, UniProt P41597)", "sequence (P41597 whole entry)": "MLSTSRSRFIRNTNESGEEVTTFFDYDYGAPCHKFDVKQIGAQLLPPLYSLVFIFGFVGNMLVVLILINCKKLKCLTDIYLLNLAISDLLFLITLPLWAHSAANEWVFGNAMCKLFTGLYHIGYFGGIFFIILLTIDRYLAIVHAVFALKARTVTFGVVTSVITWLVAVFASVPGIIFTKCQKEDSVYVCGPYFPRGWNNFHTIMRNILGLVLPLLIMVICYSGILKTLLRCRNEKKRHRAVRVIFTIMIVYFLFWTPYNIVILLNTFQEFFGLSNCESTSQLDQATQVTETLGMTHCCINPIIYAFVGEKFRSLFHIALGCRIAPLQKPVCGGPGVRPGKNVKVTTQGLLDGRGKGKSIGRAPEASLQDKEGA", "experiment": "Inhibition of [125I]MCP-1 binding to the cloned C-C chemokine receptor type 2B expressed in CHO cells"}
{"smiles": "O=C(/C=C/c1ccc(Cl)c(Cl)c1)N[C@H]1CC[C@H](CN2CCC(c3c[nH]c4ccc(O)cc34)CC2)CC1", "note": "[3-(3,4-dichlorophenyl)-N-((1r,4r)-4-((4-(5-hydroxy-1H-indol-3-yl)piperidin-1-yl)methyl)cyclohexyl)acrylamide]", "values": [{"measurement": "Ki", "value": 316, "unit": "nM"}]}
